In patent US12679878B2, “CRF2 receptor agonists and their use in therapy” (SANOFI, priority 2020, dated 2026):
Starred links: 1 amine or outer side, 2 acyl side, 3 side chain; linkers in the order of their positions; H or OH if unused. Non-standard residues stand in square brackets, D forms with d. Residues, ends and D or L forms follow the SMILES beside them. Groups on a side chain read outwards from the residue. *: point of attachment. C16 diacid = O=C(O)CCCCCCCCCCCCCCC(=O)*; γGlu = O=C(O)[C@H](CCC(=O)[*:2])N[*:1]; AEEA = NCCOCCOCC(=O)O; Aib = CC(C)(N)C(=O)O

What was measured:
CRF1R receptor = molecular target: T1, CRF1R receptor (Homo sapiens, UniProt P34998); experiment: cAMP activity at anti-target CRF1R, CHO-K1 cell line clone 2 (Example 19.10); assay type: cell-based; conditions: CRF1R CHO-K1 clone 2; for EC50: 0% HSA, read-out: EC50 [nM] 0% HSA; for Emax: 100% = Sauvagine at 100 nM
T1 construct: host or cells: CHO-K1 clone 2
T1 sequence (P34998 24-415): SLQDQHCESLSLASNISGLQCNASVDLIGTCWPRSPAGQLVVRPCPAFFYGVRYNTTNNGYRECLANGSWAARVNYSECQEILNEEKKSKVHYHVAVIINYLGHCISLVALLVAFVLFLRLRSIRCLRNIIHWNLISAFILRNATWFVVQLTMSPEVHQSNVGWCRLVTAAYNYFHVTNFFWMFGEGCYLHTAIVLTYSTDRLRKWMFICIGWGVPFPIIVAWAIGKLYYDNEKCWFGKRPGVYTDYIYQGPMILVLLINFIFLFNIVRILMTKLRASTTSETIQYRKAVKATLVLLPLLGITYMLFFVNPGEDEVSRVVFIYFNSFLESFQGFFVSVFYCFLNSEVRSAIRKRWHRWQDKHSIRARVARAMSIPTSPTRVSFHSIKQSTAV
Outline: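 The cAMP read-out used the same protocol as the previous assay, except that Sauvagine at 100 nM set the 100% activation control. Cells were CHO-K1 clone 2 overexpressing CRF1R, cultured in F12 medium with 10% FBS and G418 and stored frozen until use.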

human CRF2α receptor = molecular target: T2, human CRF2α receptor (Homo sapiens, UniProt Q13324); experiment: cAMP agonism at human CRF2α receptor in TeloHEAC cells, FA modified peptides (Example 19.9); assay type: cell-based; conditions: 0% HSA, relative to urocortin 2
T2 construct: expressed in transfected cells; host or cells: TeloHEAC
T2 sequence (Q13324 1-411): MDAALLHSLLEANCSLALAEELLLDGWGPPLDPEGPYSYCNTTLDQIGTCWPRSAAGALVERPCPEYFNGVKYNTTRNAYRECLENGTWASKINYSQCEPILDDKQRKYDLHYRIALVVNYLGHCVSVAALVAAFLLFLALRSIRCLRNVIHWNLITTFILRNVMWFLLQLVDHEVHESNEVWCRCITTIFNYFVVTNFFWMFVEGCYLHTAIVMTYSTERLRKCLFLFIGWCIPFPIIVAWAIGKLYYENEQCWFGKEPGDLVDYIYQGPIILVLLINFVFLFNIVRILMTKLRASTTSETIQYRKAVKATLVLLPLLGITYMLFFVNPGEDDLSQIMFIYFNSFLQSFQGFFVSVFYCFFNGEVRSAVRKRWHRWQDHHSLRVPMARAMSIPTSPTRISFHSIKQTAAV
Protocol: Agonism of compounds for human corticotropin-releasing factor 2α (CRF2α receptor) was determined by a functional assay measuring cAMP modulation upon treatment of TeloHEAC cells stably expressing human CRF2α receptor.
Compounds were dissolved at 0.5 mM in 100% DMSO and serially diluted (1:2) in 100% DMSO for 16 dilutions. 20 nL of each dilution was then transferred to 384-well assay plate using an acoustic droplet ejection instrument. 5 μL of compound buffer (1×HBSS; 20 mM HEPES, 2 mM IBMX, 0% or 0.2% HSA) were then added to each well.
Prior to use, frozen cells were thawed quickly at 37° C. and washed (5 min at 900 rpm) with 20 mL cell buffer (1×HBSS; 20 mM HEPES). Cells were resuspended in cell buffer and adjusted to a cell density of 800.000 cells/ml.
5 μL cells (final dell density: 4000 cells/well) were dispensed in the compound-containing 384-well assay plate and incubated for 30 minutes 37° C.
The CAMP level in treated cells was determined using the Cisbio 62AM4PEC kit according to manufacturer's instruction. Finally, plates were incubated for 1 h at room temperature before measuring the fluorescence ratio between 665/620 nm.
The percent activity value (E %) was calculated by setting 100 nM of urocortin 2 (UCN2) as 100%. The in vitro potency of the compounds was quantified by determining the concentrations that caused 50% activation of maximal response (EC50) relative to urocortin 2.

Row | EC50 (CRF1R receptor) | Emax (CRF1R receptor) | EC50 (human CRF2α receptor) | Structure (SMILES)
1 | > 100 nM | -2.9% | 1.39 nM | CC[C@H](C)[C@H](N)C(=O)N[C@H](C(=O)N[C@@H](CC(C)C)C(=O)N[C@@H](CO)C(=O)N[C@@H](CC(C)C)C(=O)N[C@@H](CC(=O)O)C(=O)N[C@@H](C(=O)N1CCC[C@H]1C(=O)N[C@H](C(=O)N[C@@H](CCCCN)C(=O)N[C@@H](CC(C)C)C(=O)N[C@@H](CCCCNC(=O)COCCOCCNC(=O)COCCOCCNC(=O)CC[C@H](NC(=O)CC[C@H](NC(=O)CCCCCCCCCCCCCCC(=O)O)C(=O)O)C(=O)O)C(=O)N[C@@H](CCC(N)=O)C(=O)N[C@H](C(=O)N[C@@H](CC(C)C)C(=O)N[C@@H](CC(C)C)C(=O)N[C@@H](CCCCN)C(=O)N[C@@H](CCC(N)=O)C(=O)N[C@@H](CCC(=O)O)C(=O)N[C@@H](CCCNC(=N)N)C(=O)N[C@@H](CCC(N)=O)C(=O)N[C@@H](CCCCN)C(=O)NC(C)(C)C(=O)N[C@@H](CCC(N)=O)C(=O)N[C@@H](CCCNC(=N)N)C(=O)N[C@@H](CCC(=O)O)C(=O)N[C@@H](CCC(N)=O)C(=O)N[C@@H](C)C(=O)N[C@@H](CCC(=O)O)C(=O)N[C@@H](CCCCN)C(=O)N[C@@H](CC(N)=O)C(=O)N[C@@H](CCCCN)C(=O)N[C@@H](CCC(N)=O)C(=O)N[C@H](C(=O)N[C@@H](CC(C)C)C(=O)N[C@@H](C)C(=O)N[C@@H](CCC(N)=O)C(=O)N[C@H](C(N)=O)C(C)C)[C@@H](C)CC)[C@@H](C)CC)[C@@H](C)CC)C(C)C)C(C)C [compound 199] (H-IVLSLD[dV]PIKLK([AEEA-AEEA-γGlu-γGlu-C16 diacid])QILLKQERQK[Aib]QREQAEKNKQILAQV-NH2; N-terminus assumed)
2 | > 100 nM | 1.9% | 8.7 nM | CC[C@H](C)[C@H](N)C(=O)N[C@H](C(=O)N[C@@H](CC(C)C)C(=O)N[C@@H](CO)C(=O)N[C@@H](CC(C)C)C(=O)N[C@@H](CC(=O)O)C(=O)N[C@@H](C(=O)N1CCC[C@H]1C(=O)N[C@H](C(=O)N[C@@H](CCCCN)C(=O)N[C@@H](CC(C)C)C(=O)N[C@@H](CCCCNC(=O)COCCOCCNC(=O)COCCOCCNC(=O)CC[C@H](NC(=O)CCCCCCCCCCCCCCC(=O)O)C(=O)O)C(=O)N[C@@H](CCC(N)=O)C(=O)N[C@H](C(=O)N[C@@H](CC(C)C)C(=O)N[C@@H](CC(C)C)C(=O)N[C@@H](CCCCN)C(=O)N[C@@H](CCC(N)=O)C(=O)N[C@@H](CCC(=O)O)C(=O)N[C@@H](CCCNC(=N)N)C(=O)N[C@@H](CCC(N)=O)C(=O)N[C@@H](CCCCN)C(=O)N[C@@H](CCCCN)C(=O)NC(C)(C)C(=O)N[C@@H](CCCNC(=N)N)C(=O)N[C@@H](CCC(N)=O)C(=O)N[C@@H](CCCCN)C(=O)N[C@@H](C)C(=O)N[C@@H](CCC(=O)O)C(=O)N[C@@H](CCCCN)C(=O)N[C@@H](CC(N)=O)C(=O)N[C@@H](CCCCN)C(=O)N[C@@H](CCC(N)=O)C(=O)N[C@H](C(=O)N[C@@H](CC(C)C)C(=O)N[C@@H](C)C(=O)N[C@@H](CCC(N)=O)C(=O)N[C@H](C(N)=O)C(C)C)[C@@H](C)CC)[C@@H](C)CC)[C@@H](C)CC)C(C)C)C(C)C [compound 200] (H-IVLSLD[dV]PIKLK([AEEA-AEEA-γGlu-C16 diacid])QILLKQERQKK[Aib]RQKAEKNKQILAQV-NH2; N-terminus assumed)
3 | > 100 nM | -2.8% | 4.66 nM | CC[C@H](C)[C@H](N)C(=O)N[C@H](C(=O)N[C@@H](CC(C)C)C(=O)N[C@@H](CO)C(=O)N[C@@H](CC(C)C)C(=O)N[C@@H](CC(=O)O)C(=O)N[C@@H](C(=O)N1CCC[C@H]1C(=O)N[C@H](C(=O)N[C@@H](CCCCN)C(=O)N[C@@H](CC(C)C)C(=O)N[C@@H](CCCCNC(=O)COCCOCCNC(=O)COCCOCCNC(=O)CC[C@H](NC(=O)CC[C@H](NC(=O)CCCCCCCCCCCCCCC(=O)O)C(=O)O)C(=O)O)C(=O)N[C@@H](CCC(N)=O)C(=O)N[C@H](C(=O)N[C@@H](CC(C)C)C(=O)N[C@@H](CC(C)C)C(=O)N[C@@H](CCCCN)C(=O)N[C@@H](CCC(N)=O)C(=O)N[C@@H](CCC(=O)O)C(=O)N[C@@H](CCCNC(=N)N)C(=O)N[C@@H](CCC(N)=O)C(=O)N[C@@H](CCCCN)C(=O)N[C@@H](CCCCN)C(=O)NC(C)(C)C(=O)N[C@@H](CCCNC(=N)N)C(=O)N[C@@H](CCC(N)=O)C(=O)N[C@@H](CCCCN)C(=O)N[C@@H](C)C(=O)N[C@@H](CCC(=O)O)C(=O)N[C@@H](CCCCN)C(=O)N[C@@H](CC(N)=O)C(=O)N[C@@H](CCCCN)C(=O)N[C@@H](CCC(N)=O)C(=O)N[C@H](C(=O)N[C@@H](CC(C)C)C(=O)N[C@@H](C)C(=O)N[C@@H](CCC(N)=O)C(=O)N[C@H](C(N)=O)C(C)C)[C@@H](C)CC)[C@@H](C)CC)[C@@H](C)CC)C(C)C)C(C)C [compound 201] (H-IVLSLD[dV]PIKLK([AEEA-AEEA-γGlu-γGlu-C16 diacid])QILLKQERQKK[Aib]RQKAEKNKQILAQV-NH2; N-terminus assumed)
4 | > 100 nM | 5.4% | 0.87 nM | CC[C@H](C)[C@H](N)C(=O)N[C@H](C(=O)N[C@@H](CC(C)C)C(=O)N[C@@H](CO)C(=O)N[C@@H](CC(C)C)C(=O)N[C@@H](CC(=O)O)C(=O)N[C@@H](C(=O)N1CCC[C@H]1C(=O)N[C@H](C(=O)NCC(=O)N[C@@H](CC(C)C)C(=O)N[C@@H](CCCCNC(=O)COCCOCCNC(=O)COCCOCCNC(=O)CC[C@H](NC(=O)CCCCCCCCCCCCCCC(=O)O)C(=O)O)C(=O)N[C@@H](CCC(N)=O)C(=O)N[C@H](C(=O)N[C@@H](CC(C)C)C(=O)N[C@@H](CC(C)C)C(=O)N[C@@H](CCCCN)C(=O)N[C@@H](CCC(N)=O)C(=O)N[C@@H](CCC(=O)O)C(=O)N[C@@H](CCCNC(=N)N)C(=O)N[C@@H](CCC(N)=O)C(=O)N[C@@H](CCCCN)C(=O)N[C@@H](CCCCN)C(=O)NC(C)(C)C(=O)N[C@@H](CCCNC(=N)N)C(=O)N[C@@H](CCC(=O)O)C(=O)N[C@@H](CCC(N)=O)C(=O)N[C@@H](C)C(=O)N[C@@H](CCC(=O)O)C(=O)N[C@H](C(=O)N[C@@H](CC(N)=O)C(=O)N[C@@H](CCCCN)C(=O)N[C@@H](CCC(N)=O)C(=O)N[C@H](C(=O)N[C@@H](CC(C)C)C(=O)N[C@@H](C)C(=O)N[C@@H](CCC(N)=O)C(=O)N[C@H](C(N)=O)C(C)C)[C@@H](C)CC)[C@@H](C)O)[C@@H](C)CC)[C@@H](C)CC)C(C)C)C(C)C [compound 202] (H-IVLSLD[dV]PIGLK([AEEA-AEEA-γGlu-C16 diacid])QILLKQERQKK[Aib]REQAETNKQILAQV-NH2; N-terminus assumed)
5 | > 100 nM | 4.7% | 4.7 nM | CC[C@H](C)[C@H](N)C(=O)N[C@H](C(=O)N[C@@H](CC(C)C)C(=O)N[C@@H](CO)C(=O)N[C@@H](CC(C)C)C(=O)N[C@@H](CC(=O)O)C(=O)N[C@@H](C(=O)N1CCC[C@H]1C(=O)N[C@H](C(=O)NCC(=O)N[C@@H](CC(C)C)C(=O)N[C@@H](CCCCNC(=O)COCCOCCNC(=O)COCCOCCNC(=O)CC[C@H](NC(=O)CC[C@H](NC(=O)CCCCCCCCCCCCCCC(=O)O)C(=O)O)C(=O)O)C(=O)N[C@@H](CCC(N)=O)C(=O)N[C@H](C(=O)N[C@@H](CC(C)C)C(=O)N[C@@H](CC(C)C)C(=O)N[C@@H](CCCCN)C(=O)N[C@@H](CCC(N)=O)C(=O)N[C@@H](CCC(=O)O)C(=O)N[C@@H](CCCNC(=N)N)C(=O)N[C@@H](CCC(N)=O)C(=O)N[C@@H](CCCCN)C(=O)N[C@@H](CCCCN)C(=O)NC(C)(C)C(=O)N[C@@H](CCCNC(=N)N)C(=O)N[C@@H](CCC(=O)O)C(=O)N[C@@H](CCC(N)=O)C(=O)N[C@@H](C)C(=O)N[C@@H](CCC(=O)O)C(=O)N[C@H](C(=O)N[C@@H](CC(N)=O)C(=O)N[C@@H](CCCCN)C(=O)N[C@@H](CCC(N)=O)C(=O)N[C@H](C(=O)N[C@@H](CC(C)C)C(=O)N[C@@H](C)C(=O)N[C@@H](CCC(N)=O)C(=O)N[C@H](C(N)=O)C(C)C)[C@@H](C)CC)[C@@H](C)O)[C@@H](C)CC)[C@@H](C)CC)C(C)C)C(C)C [compound 203] (H-IVLSLD[dV]PIGLK([AEEA-AEEA-γGlu-γGlu-C16 diacid])QILLKQERQKK[Aib]REQAETNKQILAQV-NH2; N-terminus assumed)
